A word on the inhibition: it is the change of the read-out against control, counted positive when it falls.

Experimental findings from US7524853B2 (Solvay Pharmaceuticals B.V., priority 2003, dated 2009) are described below.

Common to all, as to type: cell-based
Experiment [1] concerns the target T1, 17β-hydroxysteroid dehydrogenase type 1 (17β-HSD type 1) (Homo sapiens, UniProt P14061).
T1 construct: expressed in transfected cells; host or cells: MCF-7
T1 sequence (P14061 1-328): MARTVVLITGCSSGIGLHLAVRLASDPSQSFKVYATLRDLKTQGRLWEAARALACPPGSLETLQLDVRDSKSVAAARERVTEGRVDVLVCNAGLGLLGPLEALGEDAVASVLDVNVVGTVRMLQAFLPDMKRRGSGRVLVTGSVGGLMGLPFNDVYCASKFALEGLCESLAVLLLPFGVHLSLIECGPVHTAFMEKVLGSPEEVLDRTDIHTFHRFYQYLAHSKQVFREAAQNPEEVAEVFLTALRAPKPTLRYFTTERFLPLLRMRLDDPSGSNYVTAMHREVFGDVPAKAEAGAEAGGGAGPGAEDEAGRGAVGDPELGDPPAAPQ
Description: Inhibition of 17β-HSD type 1 in MCF-7 cells stably expressing the isoenzyme (tritium labeled estrone conversion, HPLC). The conditions noted are these: MCF-7 cells expressing 17β-HSD type 1, 2 nM tritium labeled estrone; for inhibition at 1 µM / inhibition at 10 µM: MCF7; for inhibition at 1 µM: read-out: % Inhibition HSD1 1 μM; for inhibition at 10 µM: read-out: % Inhibition HSD1 10 μM. In outline:
(§1)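 Percent inhibition derived by comparing substrate conversion with versus without compound, quantified by HPLC–radioflow detection after TCA stop. Cells were stably transfected MCF-7 expressing type 1, 2 or 3 enzyme, given 2 nM labeled estrone, estradiol or androstenedione respectively; compounds tested at two concentrations.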

Experiment [2] deals with T2, 17β-hydroxysteroid dehydrogenase type 2 (17β-HSD type 2) (Homo sapiens, UniProt P37059).
T2 construct: expressed in transfected cells; host or cells: MCF-7
T2 sequence (P37059 1-387): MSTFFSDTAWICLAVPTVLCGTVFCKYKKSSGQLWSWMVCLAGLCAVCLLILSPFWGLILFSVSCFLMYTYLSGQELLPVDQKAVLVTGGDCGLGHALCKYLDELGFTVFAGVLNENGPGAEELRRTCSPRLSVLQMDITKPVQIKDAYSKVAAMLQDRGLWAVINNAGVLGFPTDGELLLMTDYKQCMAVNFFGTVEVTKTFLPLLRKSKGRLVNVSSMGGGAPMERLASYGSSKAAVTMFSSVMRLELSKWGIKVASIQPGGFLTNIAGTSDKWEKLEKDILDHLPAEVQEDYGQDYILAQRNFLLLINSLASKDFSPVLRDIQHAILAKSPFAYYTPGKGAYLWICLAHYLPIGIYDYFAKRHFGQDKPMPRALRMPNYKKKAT
Description: Inhibition of 17β-HSD type 2 in MCF-7 cells stably expressing the isoenzyme (tritium labeled estradiol conversion, HPLC). The conditions noted are these: MCF-7 cells expressing 17β-HSD type 2, 2 nM tritium labeled estradiol; for inhibition at 1 µM / inhibition at 10 µM: MCF7; for inhibition at 1 µM: read-out: % Inhibition HSD2 1 μM; for inhibition at 10 µM: read-out: % Inhibition HSD2 10 μM. Put shortly: as §1

Experiment [3] deals with T3, 17β-hydroxysteroid dehydrogenase type 3 (17β-HSD type 3) (Homo sapiens, UniProt P37058).
T3 construct: expressed in transfected cells; host or cells: MCF-7
T3 sequence (P37058 1-310): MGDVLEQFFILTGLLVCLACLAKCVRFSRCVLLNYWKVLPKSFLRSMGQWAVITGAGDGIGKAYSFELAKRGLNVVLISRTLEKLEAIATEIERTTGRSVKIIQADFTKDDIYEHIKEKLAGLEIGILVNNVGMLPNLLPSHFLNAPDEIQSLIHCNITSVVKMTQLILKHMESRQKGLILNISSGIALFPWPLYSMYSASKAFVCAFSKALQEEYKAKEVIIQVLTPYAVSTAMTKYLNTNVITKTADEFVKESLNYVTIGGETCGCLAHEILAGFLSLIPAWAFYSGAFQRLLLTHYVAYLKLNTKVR
Put plainly: Inhibition of 17β-HSD type 3 in MCF-7 cells stably expressing the isoenzyme (tritium labeled androstenedione conversion, HPLC). The note with it: MCF-7 cells expressing 17β-HSD type 3, 2 nM tritium labeled androstenedione; for inhibition at 1 µM / inhibition at 10 µM: MCF7; for inhibition at 1 µM: read-out: % Inhibition HSD3 1 μM; for inhibition at 10 µM: read-out: % Inhibition HSD3 10 μM. In outline:
as §1

Turning to `COc1cccc(-c2nc3sc4c(c3c(=O)n2Cc2ccccc2)CCC(Br)(Br)C4=O)c1` [No. 81, 3-Benzyl-7,7-dibromo-2-(m-methoxyphenyl)-6,7-dihydro-3H,5H-benzo[4,5]thieno[2,3-d]pyrimidine-4,8-dione], the inhibition at 1 µM in experiment [1] (1 μM test compound) came out at 33.1%; in experiment [2] (1 μM test compound) it was 32.1%; in experiment [3] (1 μM test compound), 7.8%. Further, the inhibition at 10 µM in experiment [1] (10 μM test compound) came out at 16.8%; in experiment [2] (10 μM test compound), 35.6%; in experiment [3] (10 μM test compound) it was 26.2%.

Consider `COc1cc(-c2nc3sc4c(c3c(=O)n2Cc2ccccc2)CCCC4=O)cc(OC)c1OC` [No. 2, 3-Benzyl-2-(3,4,5-trimethoxyphenyl)-6,7-dihydro-3H,5H-benzo[4,5]thieno[2,3-d]pyrimidine-4,8-dione], for which the inhibition at 1 µM in experiment [1] (1 μM test compound) was found to be 17.3%; in experiment [2] (1 μM test compound), 1.5%; in experiment [3] (1 μM test compound), 11.7%. The inhibition at 10 µM in experiment [1] (10 μM test compound) came to 58.7%; in experiment [2] (10 μM test compound) it was 33.2%; in experiment [3] (10 μM test compound), 40.5%.

For the compound `O=c1c2c3c(sc2nc(CO)n1-c1ccccc1)CCCC3` [No. 38, 2-Hydroxymethyl-3-phenyl-5,6,7,8-tetrahydro-3H-benzo[4,5]thieno[2,3-d]pyrimidin-4-one], the inhibition at 1 µM in experiment [1] (1 μM test compound) came to 0.3%; in experiment [2] (1 μM test compound) it was 11.4%; in experiment [3] (1 μM test compound), 14.2%. For the same compound, the inhibition at 10 µM is 23.6% in experiment [1] (10 μM test compound), 33.4% in experiment [2] (10 μM test compound) and 17.6% in experiment [3] (10 μM test compound).

`COc1ccc(-c2nc3sc4c(Oc5ccccc5)c(CO)ccc4c3c(=O)n2Cc2ccccc2)cc1` [No. 20, 3-Benzyl-7-hydroxymethyl-2-(p-methoxyphenyl)-8-phenoxy-3H-benzo[4,5]thieno[2,3-d]pyrimidin-4-one]: the inhibition at 1 µM was 26% in experiment [1] (1 μM test compound), -1.7% in experiment [2] (1 μM test compound) and 9.9% in experiment [3] (1 μM test compound). In addition, the inhibition at 10 µM worked out at 37.5% in experiment [1] (10 μM test compound), 16.6% in experiment [2] (10 μM test compound) and 61.1% in experiment [3] (10 μM test compound).

With `COc1cc(-c2nc3sc4c(c3c(=O)n2Cc2ccccc2)CCC(C=O)=C4Sc2ccccc2)cc(OC)c1OC` [No. 8, 3-Benzyl-4-oxo-8-phenylsulfanyl-2-(3,4,5-trimethoxyphenyl)-3,4,5,6-tetrahydro-benzo[4,5]thieno[2,3-d]pyrimidine-7-carbaldehyde], the inhibition at 1 µM in experiment [1] (1 μM test compound) turned out to be 30.8%; in experiment [2] (1 μM test compound), 4.9%; in experiment [3] (1 μM test compound), 2.5%. For the same compound, the values for the inhibition at 10 µM in experiment [1] (10 μM test compound), in experiment [2] (10 μM test compound) and in experiment [3] (10 μM test compound) were 27.4%, 17.1% and 4.8%, respectively.

On to `CCCCn1c(-c2cc(OC)c(OC)c(OC)c2)nc2sc3c(c2c1=O)CC(C)CC3=O` (stereo not drawn) [No. 692, 3-Butyl-6-methyl-2-(3,4,5-trimethoxyphenyl)-6,7-dihydro-3H,5H-benzo[4,5]thieno[2,3-d]pyrimidin-4,8-dione], for which the inhibition at 1 µM in experiment [1] (1 μM test compound) came to 18%; in experiment [2] (1 μM test compound) it was 12.7%; in experiment [3] (1 μM test compound), 9.8%. The inhibition at 10 µM in experiment [1] (10 μM test compound) is 28.6%; in experiment [2] (10 μM test compound), 21%; in experiment [3] (10 μM test compound) it was 35%.

On to `COCc1nc2sc3c(O)cccc3c2c(=O)n1CCc1cccs1` [No. 645], for which the “% Inhibition HSD1 1 μM” value in experiment [1] (1 μM test compound) stood at 17.2%. For the same compound, the “% Inhibition HSD1 10 μM” value in experiment [1] (10 μM test compound) is reported as 29.1%. In experiment [2] (1 μM test compound), the “% Inhibition HSD2 1 μM” value is 48.8%. In experiment [2] (10 μM test compound), the “% Inhibition HSD2 10 μM” value was found to be 75.5%. The “% Inhibition HSD3 1 μM” value in experiment [3] (1 μM test compound) is reported as 21.7%. Moreover, the “% Inhibition HSD3 10 μM” value in experiment [3] (10 μM test compound) was 22.7%.

As for `COc1cc(-c2nc3sc4c(c3c(=O)n2Cc2ccccc2)CC(C)CC4=O)cc(OC)c1OC` (stereo not drawn) [No. 688, 3-Benzyl-6-methyl-2-(3,4,5-trimethoxyphenyl)-6,7-dihydro-3H,5H-benzo[4,5]thieno[2,3-d]pyrimidin-4,8-dione], the values for the inhibition at 1 µM in experiment [1] (1 μM test compound), in experiment [2] (1 μM test compound) and in experiment [3] (1 μM test compound) were 21.5%, 25.4% and 14.4%, respectively. Further, the inhibition at 10 µM in experiment [1] (10 μM test compound) is 21.6%; in experiment [2] (10 μM test compound), 14.2%; in experiment [3] (10 μM test compound) it was 22.3%.

Consider `COc1cc(-c2nc3sc4c(c3c(=O)n2Cc2cccnc2)CCCC4)cc(OC)c1OC` [No. 144], for which the inhibition at 1 µM came out at 23.5% in experiment [1] (1 μM test compound), 13.6% in experiment [2] (1 μM test compound) and 12.7% in experiment [3] (1 μM test compound). Also, the inhibition at 10 µM in experiment [1] (10 μM test compound) was found to be 33.7%; in experiment [2] (10 μM test compound), 31.1%; in experiment [3] (10 μM test compound) it was 19.3%.

With `COc1cc(-c2nc3sc4c(O)c(Br)ccc4c3c(=O)n2Cc2ccccc2)c(Br)c(OC)c1OC` [No. 52, 3-benzyl-7-bromo-2-(2-bromo-3,4,5-trimethoxyphenyl)-8-hydroxy-3H-benzo[4,5]thieno[2,3-d]pyrimidin-4-one], the inhibition at 1 µM in experiment [1] (1 μM test compound) is 4.7%; in experiment [2] (1 μM test compound), 0.1%; in experiment [3] (1 μM test compound), -2.4%. Besides, the results for the inhibition at 10 µM in experiment [1] (10 μM test compound), in experiment [2] (10 μM test compound) and in experiment [3] (10 μM test compound) were 11.6%, 19.1% and 4.3%, respectively.

As for `COc1cc(-c2nc3sc4c(O)cccc4c3c(=O)n2Cc2ccccc2)cc(OC)c1OC` [No. 53, 3-Benzyl-8-hydroxy-2-(3,4,5-trimethoxyphenyl)-3H-benzo[4,5]thieno[2,3-d]pyrimidin-4-one], the figures for the inhibition at 1 µM in experiment [1] (1 μM test compound), in experiment [2] (1 μM test compound) and in experiment [3] (1 μM test compound) were 52.2%, 22.4% and 32.2%, respectively. In addition, the inhibition at 10 µM turned out to be 71% in experiment [1] (10 μM test compound), 60% in experiment [2] (10 μM test compound) and 52.7% in experiment [3] (10 μM test compound).

For the compound `O=c1c2c(nc(-c3cccs3)n1CCO)sc1c(O)c(Br)ccc12` [No. 149, 7-Bromo-8-hydroxy-3-(2-hydroxyethyl)-2-thiophen-2-yl-3H-benzo[4,5]thieno[2,3-d]pyrimidin-4-one], the values for the inhibition at 1 µM in experiment [1] (1 μM test compound), in experiment [2] (1 μM test compound) and in experiment [3] (1 μM test compound) were 17.8%, 34.6% and 31%, respectively. Besides, the inhibition at 10 µM was found to be 18.3% in experiment [1] (10 μM test compound), 29.9% in experiment [2] (10 μM test compound) and 59.8% in experiment [3] (10 μM test compound).

`O=C1c2sc3nc(-c4cccs4)n(Cc4ccccc4)c(=O)c3c2CCC1Br` (stereo not drawn): the inhibition at 1 µM in experiment [1] (1 μM test compound) was 28.5%; in experiment [2] (1 μM test compound) it was 32.8%; in experiment [3] (1 μM test compound) it was 21.8%. Further, the inhibition at 10 µM in experiment [1] (10 μM test compound) turned out to be 23.2%; in experiment [2] (10 μM test compound) it was 48.4%; in experiment [3] (10 μM test compound), 25.6%.

`COc1cc(-c2nc3sc4c(O)cccc4c3c(=O)n2CC(C)C)c(Br)c(OC)c1OC` [No. 117, 8-Hydroxy-3-isobutyl-2-(2-bromo-3,4,5-trimethoxyphenyl)-3H-benzo[4,5]thieno[2,3-d]pyrimidin-4-one]: the inhibition at 1 µM came out at 39.3% in experiment [1] (1 μM test compound), 19.7% in experiment [2] (1 μM test compound) and 19.7% in experiment [3] (1 μM test compound). In addition, the inhibition at 10 µM in experiment [1] (10 μM test compound) was 62.2%; in experiment [2] (10 μM test compound), 20.7%; in experiment [3] (10 μM test compound), 44.1%.

Regarding `COc1cc(-c2nc3sc4c(O)cccc4c3c(=O)n2Cc2ccccc2)c(Br)c(OC)c1OC` [No. 49, 3-Benzyl-2-(2-bromo-3,4,5-trimethoxyphenyl)-8-hydroxy-3H-benzo[4,5]thieno[2,3-d]pyrimidin-4-one], the inhibition at 1 µM in experiment [1] (1 μM test compound) was 24.7%; in experiment [2] (1 μM test compound), 20.1%; in experiment [3] (1 μM test compound), 12.4%. The inhibition at 10 µM was 86.2% in experiment [1] (10 μM test compound), 36.9% in experiment [2] (10 μM test compound) and 52.6% in experiment [3] (10 μM test compound).
